Measured values published in patent US8030446B2, “Mutant proline-and-arginine rich peptides and methods for using the same” (Trustees of Dartmouth College, priority 2006, dated 2011).
Where “and” joins values, the source holds several entries; their conditions need not be identical. Equal entries are not always repeated. Where two headings read alike, the source gives them in different places. Marks after values point to notes of the source that are not given here. Ends that are not written are not given here.

Tests used:
[1] = target: T1, Mammalian (Human) 20s Proteasome (Homo sapiens, UniProt P25788); assay: Chymotrypsin-like (ChT-L) peptidase activity of 20S proteasome, N-succinyl-LLVY-AMC substrate; type: biochemical; conditions: for IC50: 15-minute pre-incubation, 1 hour at 37° C., pH 7.5, 0.03% SDS
T1 construct: purchased Boston Biochem (Cambridge, Mass.)
Protocol: Determination of Enzymatic Activity. Mammalian (Human) 20s Proteasome was purchased from Boston Biochem (Cambridge, Mass.); substrate, N-succinyl-LLVY-AMC was purchased from SIGMA (St. Louis, Mo.); and negative control, Lactacystin, was purchased from SIGMA. […] Activity was determined by measuring the amount of a fluorescence observed upon release of the MCA group after a 1 hour incubation at 37° C. in 50 mM sodium phosphate buffer at pH 7.5 containing 0.03% SDS. Inhibition by PR-peptide was measured after a 15-minute pre-incubation at 37° C. of each peptide with 20S proteasome, followed by the addition of the substrate and the one hour incubation.

[2] = test system: genes regulating the NF-κB pathway in human umbilical vein endothelial cells (HUVEC); assay: NF-κB pathway-specific gene expression microarray in HUVEC treated with PR peptides; type: cell-based; conditions: for overall inhibitory effect on NF-κB pathway-related gene expression (in words): FIG. 1, averaged % inhibition over 13 down-regulated genes, relative to PR11; for AKT1 gene expression / ATF2 gene expression / CREB1 gene expression / ELK3 gene expression / JNK1 gene expression / MEK4 gene expression / MEKK1 gene expression / MEKK2 gene expression / NF-κB1 gene expression / NF-κB2 gene expression / P38 MAPK gene expression / RANK gene expression / RIP gene expression / TAK1 gene expression / TBK1 gene expression / TRAF6 gene expression: PR peptides 1 μM, 8 hours, relative to untreated controls
Protocol: Cell Culture. Human umbilical vein endothelial cells (HUVEC, Cambrex Bio Science Walkersville, Inc., East Rutherford, N.J.) were cultured in endothelial cell basal medium-2 supplemented with EGM-2 SINGLEQUOTS (Cambrex Bio Science Walkersville, Inc.) and FBS. Confluent HUVEC, passage 3-5, were starved overnight in medium supplemented with 0.5% FBS, 0.25% BSA and incubated with PR peptides (1 μM) for 8 hours in starvation medium.
Total RNA Extraction and Gene Profiling by Microarray. Total RNA extraction was performed using the RNEASY mini kit protocol (QIAGEN, Valencia, Calif.). The quality and quantity of total RNA was determined using RNA 6000 Nano chips (Agilent Technology, Santa Clara, Calif.).
Gene profiling was performed using pathway-specific gene expression array for NF-κB signaling transduction (HS-016.2, SuperArray Bioscience Corp.). A total of 96 cDNA fragments from genes related to NF-κB mediated signal transduction, including: NF-κB/IκB family, NF-κB responsive genes (adhesion molecules, cytokines), extracellular ligands, transmembrane receptors, adaptor proteins, signal transduction kinases, and transcription factors were printed in tetraspot format on 3.8×4.8 cm nylon array membrane. Total RNA (0.5 μg) was reverse-transcribed into cDNA labeled with biotin-dUTP according to the manufacture's protocol. After overnight hybridization at 60° C., array membranes were treated with alkaline phosphate-conjugated streptavidin followed by chemiluminescent alkaline phosphate substrate CDP-star (Applied Biosystems, Foster City, Calif.) and exposed to X-ray film. The data were extracted from raw images using […] software (SuperArray, Bioscience Corp.). After background subtraction, the level of gene expression was determined as signal intensity units relative to total array intensity signal. Statistical significant altered genes (PR peptides vs. control) at P values <0.05 were analyzed by Student's t-test, 2-tailed distribution. The data were expressed as fold change PR peptides relative to controls (untreated cells kept in similar conditions).

[3] = chymotrypsin-like activity, read-out: I50

IC50 [1, 3] | Substance | overall inhibitory effect on NF-κB pathway-related gene expression (in words) [2] | AKT1 gene expression ([2]; HUVEC) | ATF2 gene expression ([2]; HUVEC) | CREB1 gene expression ([2]; HUVEC) | ELK3 gene expression ([2]; HUVEC) | JNK1 gene expression ([2]; HUVEC) | MEK4 gene expression ([2]; HUVEC) | MEKK1 gene expression ([2]; HUVEC) | MEKK2 gene expression ([2]; HUVEC) | NF-κB1 gene expression ([2]; HUVEC) | NF-κB2 gene expression ([2]; HUVEC) | P38 MAPK gene expression ([2]; HUVEC) | RANK gene expression ([2]; HUVEC) | RIP gene expression ([2]; HUVEC) | TAK1 gene expression ([2]; HUVEC) | TBK1 gene expression ([2]; HUVEC) | TRAF6 gene expression ([2]; HUVEC) | other results
851 nM | RRRPRPAYLPR [Peptide A7] |  |  |  |  |  |  |  |  |  |  |  |  |  |  |  |  |  | 
685 nM | RRRPRPPYLPA [Peptide A11] |  |  |  |  |  |  |  |  |  |  |  |  |  |  |  |  |  | 
2810 nM | ARRPRPPYLPR [Peptide A1] | dramatically reduced PR11 activity | 1.3 fold change | −1.4* fold change | −1.4 fold change | 0.9 fold change | −1.1 fold change | −0.9 fold change | −1.0 fold change | −1.2 fold change | −1.1 fold change | −1.1 fold change | −1.1 fold change | 1.2 fold change | −0.9 fold change | −1.4* fold change | −1.4* fold change | −1.1 fold change | 
1220 nM | RRRPRAPYLPR [Peptide A6] |  |  |  |  |  |  |  |  |  |  |  |  |  |  |  |  |  | 
2650 nM | RRRPAPPYLPR [Peptide A5] |  |  |  |  |  |  |  |  |  |  |  |  |  |  |  |  |  | 
137 nM | RRRPRPPYGPR [Peptide G9] |  |  |  |  |  |  |  |  |  |  |  |  |  |  |  |  |  | 20S proteasome inhibiting activity (in words) ([1]; chymotrypsin-like activity): fully active
5000 nM and 4990 nM | RRRARPPYLPR [Peptide A4] |  |  |  |  |  |  |  |  |  |  |  |  |  |  |  |  |  | 
2370 nM | RRRPRPPELPR [Peptide E8] | reduced activity compared with PR11 or Trp12 | 0.8 fold change | −1.6* fold change | −1.9 fold change | ^−1.8^# fold change | −1.2 fold change | −1.2 fold change | −1.0 fold change | −1.3 fold change | −1.7 fold change | −1.4 fold change | −1.5 fold change | 1.5 fold change | −3.6* fold change | −1.7* fold change | −2.3^# fold change | −1.2 fold change | 
6340 nM | KRRPRPPELPR [Peptide K1E8] | higher than that of Glu8 or Ala1Glu8 | 0.6 fold change | −2.6^# fold change | −5.0^# fold change | ^−1.9^# fold change | −2.2 fold change | −1.9* fold change | −1.4 fold change | −3.0^# fold change | −1.9 fold change | −2.3* fold change | −2.6^# fold change | 0.7 fold change | −3.3* fold change | −2.4^# fold change | −3.6^# fold change | −5.5* fold change | 
 | RRRPRPPYLPRW [Peptide W12] |  | 2.5^# fold change | −2.7^# fold change | −1.6 fold change | 1.3^# fold change | −5.3* fold change | −4.0^# fold change | −4.6* fold change | −2.4^# fold change | −2.6 fold change | −1.9* fold change | −2.5^# fold change | 2.1^# fold change | −5.5* fold change | −2.0^# fold change | −4.7^# fold change | −3.1* fold change | 20S proteasome inhibiting activity (in words) ([1]; chymotrypsin-like activity): did not noticeably alter PR11 activity
49400 nM | ARRPRPPELPR [Peptide A1E8] | reduced activity compared with PR11 or Trp12 | 0.8 fold change | −1.5* fold change | −2.2* fold change | ^−1.9^# fold change | −1.5 fold change | −1.2 fold change | −0.8 fold change | −1.2 fold change | −1.6 fold change | −3.5* fold change | −1.6 fold change | 1.3 fold change | −10.4^# fold change | −1.8 fold change | −2.0^# fold change | −1.6 fold change | 
782 nM | RRRPRPPYLAR [Peptide A10] |  |  |  |  |  |  |  |  |  |  |  |  |  |  |  |  |  | 
805 nM | RRRPRPPYLPR [PR11, reference compound] |  | 3.0* fold change | −2.1* fold change | −2.1* fold change | 1.9* fold change | −6.5^# fold change | −3.1* fold change | −2.9* fold change | −2.6* fold change | −4.1* fold change | −3.3^# fold change | −3.6^# fold change | 1.5* fold change | −10.4^# fold change | −9.2^# fold change | −2.8^# fold change | −2.4* fold change | number of genes whose expression was significantly affected ([2]; HUVEC, NF-κB array of 96 genes): 16 genes
2770 nM | RARPRPPYLPR [Peptide A2] | dramatically reduced PR11 activity | 1.4 fold change | −1.2 fold change | −1.4 fold change | 1.0 fold change | −1.5 fold change | −1.9 fold change | −1.8 fold change | −0.9 fold change | −1.2 fold change | −0.8 fold change | −0.9 fold change | 1.4 fold change | −1.1 fold change | −0.8 fold change | −1.3 fold change | −1.1 fold change | 
11300 nM | ARAPRPPYLPR [ARA] |  |  |  |  |  |  |  |  |  |  |  |  |  |  |  |  |  | 
2610 nM | RRRPRPPELPRW [Peptide E8W12] | reduced activity compared with PR11 or Trp12 | 1.8* fold change | −1.8* fold change | −1.5 fold change | 1.0 fold change | −1.8 fold change | −2.4* fold change | −1.7 fold change | −1.1 fold change | −1.6 fold change | −1.3 fold change | −1.1 fold change | 1.8^# fold change | −1.5 fold change | −1.2 fold change | −1.6* fold change | −1.2 fold change | 20S proteasome inhibiting activity (in words) ([1]; chymotrypsin-like activity): behaved much the same as the Glu8 mutant
 | AAAPRPPYLPR [AAA, reference compound] |  |  |  |  |  |  |  |  |  |  |  |  |  |  |  |  |  | IC50 ([1]; I50, chymotrypsin-like activity): > 100000 nM
4 nM | H-RRRPRPPYLPRPRPPPFFPPRLPPRIPPGFPPRFPPRFP-OH [PR39, reference compound] |  |  |  |  |  |  |  |  |  |  |  |  |  |  |  |  |  | 
20100 nM | RAAPRPPYLPR [RAA] |  |  |  |  |  |  |  |  |  |  |  |  |  |  |  |  |  | 
14500 nM | AARPRPPYLPR [AAR] |  |  |  |  |  |  |  |  |  |  |  |  |  |  |  |  |  | 
